Assay results reported in ChEMBL document CHEMBL2073747, “Methadone inhibits rhodamine123 transport in Caco-2 cells” (Drug Metab Dispos, 2001).

Assays:
[1] = biological target: T1, ATP-dependent translocase ABCB1 (Homo sapiens, UniProt P08183); experiment: TP_TRANSPORTER: inhibition of Rhodamine 123 transepithelial transport (basal to apical) (Rhodamine 123: 5 uM) in Caco-2 cells; type: functional, cell-based
[2] = biological target: T1, ATP-dependent translocase ABCB1; experiment: TP_TRANSPORTER: transepithelial transport (basal to apical) in Caco-2 cells; type: functional, cell-based

T1 sequence (P08183 whole entry): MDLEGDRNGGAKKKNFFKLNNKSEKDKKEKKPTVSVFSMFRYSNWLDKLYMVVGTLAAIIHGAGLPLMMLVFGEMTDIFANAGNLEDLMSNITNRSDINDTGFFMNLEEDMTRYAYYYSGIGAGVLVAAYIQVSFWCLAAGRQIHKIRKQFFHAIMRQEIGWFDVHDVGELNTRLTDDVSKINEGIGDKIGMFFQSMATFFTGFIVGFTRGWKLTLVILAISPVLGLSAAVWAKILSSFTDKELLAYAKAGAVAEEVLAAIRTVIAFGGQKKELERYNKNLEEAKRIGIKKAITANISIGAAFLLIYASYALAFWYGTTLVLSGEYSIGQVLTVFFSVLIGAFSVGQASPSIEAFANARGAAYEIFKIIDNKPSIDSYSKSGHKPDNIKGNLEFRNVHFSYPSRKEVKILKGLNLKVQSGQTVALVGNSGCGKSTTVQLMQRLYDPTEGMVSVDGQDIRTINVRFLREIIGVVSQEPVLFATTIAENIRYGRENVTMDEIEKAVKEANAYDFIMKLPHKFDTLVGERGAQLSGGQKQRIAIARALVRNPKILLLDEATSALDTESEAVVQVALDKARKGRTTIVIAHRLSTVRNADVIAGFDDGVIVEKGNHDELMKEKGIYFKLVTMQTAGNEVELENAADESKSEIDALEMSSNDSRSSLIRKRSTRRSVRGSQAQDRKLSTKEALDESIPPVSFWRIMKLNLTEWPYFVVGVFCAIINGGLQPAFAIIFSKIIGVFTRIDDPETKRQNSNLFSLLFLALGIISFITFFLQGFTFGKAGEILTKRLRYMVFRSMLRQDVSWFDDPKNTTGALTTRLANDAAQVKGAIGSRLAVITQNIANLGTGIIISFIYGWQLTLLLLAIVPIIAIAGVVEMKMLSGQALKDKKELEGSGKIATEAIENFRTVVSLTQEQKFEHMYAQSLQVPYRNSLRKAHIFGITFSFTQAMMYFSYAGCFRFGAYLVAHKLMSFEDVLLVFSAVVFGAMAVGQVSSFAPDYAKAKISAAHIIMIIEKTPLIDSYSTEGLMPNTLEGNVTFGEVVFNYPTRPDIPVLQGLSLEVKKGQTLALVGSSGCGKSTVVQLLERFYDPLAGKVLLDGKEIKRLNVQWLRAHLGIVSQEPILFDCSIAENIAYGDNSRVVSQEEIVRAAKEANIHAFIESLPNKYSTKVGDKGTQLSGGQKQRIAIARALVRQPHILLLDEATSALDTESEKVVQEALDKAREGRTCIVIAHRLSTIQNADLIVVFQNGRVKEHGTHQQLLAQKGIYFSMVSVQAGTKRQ

Compound: CCC(=O)C(CC(C)N(C)C)(c1ccccc1)c1ccccc1 (configuration not stated) [METHADONE]
- IC50 [1]: 7.5 µM
- Activity [2]: is not a substrate [-]
